In patent publication US11839613B2, “Pyrimidine derivatives as PGE2 receptor modulators” (IDORSIA PHARMACEUTICALS LTD, priority 2017, dated 2023):
pIC50: −log10 of the molar value.

Legend:
PTGER2 (EP2) = PTGER2 (EP2) (Homo sapiens (Human), UniProt P43116); experiment: hEP2 b-arrestin assay (PathHunter HEK 293 PTGER2 b-arrestin cells); format: cell-based; details: antagonistic activity, beta-arrestin assay; read-out: hEP2 b-arr IC50
Protocol: Plate is pre-incubated 15 minutes at 37° C. Then five microliters of PGE2 (final conc. 5 μM) are transferred into the assay plate. Plate is incubated 120 minutes at 37° C.
(each concentration is measured in duplicate)

EP2 = EP2 (Homo sapiens (Human), UniProt P43116); experiment: hEP2 cAMP assay (SF295 glioblastoma cells, HTRF cAMP); format: cell-based; details: antagonistic activity
EP2, sequence (P43116 whole entry): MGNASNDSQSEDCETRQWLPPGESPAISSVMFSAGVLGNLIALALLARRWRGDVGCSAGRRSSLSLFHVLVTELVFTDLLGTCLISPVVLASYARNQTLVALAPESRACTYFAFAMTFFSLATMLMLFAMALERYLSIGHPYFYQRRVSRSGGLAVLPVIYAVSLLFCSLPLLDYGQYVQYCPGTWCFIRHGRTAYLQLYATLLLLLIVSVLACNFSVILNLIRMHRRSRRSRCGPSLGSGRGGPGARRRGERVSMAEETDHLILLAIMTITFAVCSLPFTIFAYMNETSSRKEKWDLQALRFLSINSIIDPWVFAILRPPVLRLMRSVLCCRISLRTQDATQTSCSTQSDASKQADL
Outline: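 PGE2-driven cAMP accumulation was measured by HTRF in SF295 cells, which express endogenous EP2 only. Cells in assay buffer with 2 mM IBMX were pre-incubated 45 min at RT, then incubated 30 min at RT. Detection used competition between cellular cAMP and d2-cAMP for a cryptate anti-cAMP antibody.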

EP4 = EP4 (Homo sapiens (Human), UniProt P35408); experiment: hEP4 cAMP assay (BT549 breast cancer cells, HTRF cAMP); format: cell-based; details: antagonistic activity, PGE2 6 nM
EP4, sequence (P35408 whole entry): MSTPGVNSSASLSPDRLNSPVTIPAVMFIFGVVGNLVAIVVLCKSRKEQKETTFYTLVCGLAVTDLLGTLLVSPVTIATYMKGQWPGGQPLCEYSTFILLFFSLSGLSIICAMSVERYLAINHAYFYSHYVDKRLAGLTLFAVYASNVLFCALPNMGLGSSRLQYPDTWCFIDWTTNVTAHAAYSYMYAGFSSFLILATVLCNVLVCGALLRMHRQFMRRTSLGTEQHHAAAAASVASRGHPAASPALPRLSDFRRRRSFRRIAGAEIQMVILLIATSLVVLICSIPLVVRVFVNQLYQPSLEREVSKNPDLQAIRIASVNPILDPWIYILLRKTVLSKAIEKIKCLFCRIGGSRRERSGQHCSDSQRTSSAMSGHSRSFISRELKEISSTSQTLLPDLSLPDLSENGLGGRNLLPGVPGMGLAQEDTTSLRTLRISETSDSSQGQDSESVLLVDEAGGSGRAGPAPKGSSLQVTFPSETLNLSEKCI
Outline: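 cAMP accumulation quantified by HTRF competition between cellular cAMP and d2-labeled cAMP for cryptate anti-cAMP antibody. Cells: endogenously EP4-expressing BT549, buffer with 2 mM IBMX; 45 min RT compound preincubation preceded 30 min RT challenge with PGE2 at 6 nM final.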

PTGER4 (EP4) = PTGER4 (EP4) (Homo sapiens (Human), UniProt P35408); experiment: cell-based
PTGER4 (EP4), sequence (P35408 whole entry): as above

PTGER2 (EP2), sequence (P43116 whole entry): as the sequence (P43116 whole entry) above

pIC50 (PTGER2 (EP2))	pIC50 (EP2)	pIC50 (EP4)	pIC50 (PTGER4 (EP4))	pIC50 (EP4; BT549 cells)	SMILES
6.76	6.95	8.10	8.70		CCOc1cc(-c2cc(NCCc3cc4cccnc4cc3F)ncn2)sc1-c1noc(=O)[nH]1 [Example 348, 3-(3-Ethoxy-5-{6-[2-(7-fluoro-quinolin-6-yl)-ethylamino]-pyrimidin-4-yl}-thiophen-2-yl)-[1,2,4]oxadiazol-5(4H)-one]
8.15	7.66	6.81	7.05		CCOc1cc(-c2cc(NCCc3c(OC)cc4occc4c3C)ncn2)ccc1CC(=O)O [Ex 157, (2-Ethoxy-4-{6-[2-(6-methoxy-4-methyl-benzofuran-5-yl)-ethylamino]-pyrimidin-4-yl}-phenyl)-acetic acid]
6.85	6.66	7.36	7.68		CCOc1cc(-c2cc(NCCc3cc4c(cc3SC)OCCO4)ncn2)sc1C(=O)O [Ex 78, 3-Ethoxy-5-{6-[2-(7-methylsulfanyl-2,3-dihydro-benzo[1,4]dioxin-6-yl)-ethylamino]-pyrimidin-4-yl}-thiophene-2-carboxylic acid]
6.51	6.60	6.35	6.44		CCOc1cc(-c2cc(NCCc3cc4c(cc3OC)OCO4)ncn2)ccc1CC(=O)O [Ex 299]
7.54	7.85	7.77	7.29		CCOc1cc(-c2cc(NCCc3cc4c(cc3C)OCCO4)ncn2)sc1C(=O)O [Ex 30, 3-Ethoxy-5-{6-[2-(7-methyl-2,3-dihydro-benzo[1,4]dioxin-6-yl)-ethylamino]-pyrimidin-4-yl}-thiophene-2-carboxylic acid]
6.80	6.28	6.68	6.97		CCOc1cc(-c2cc(NCCc3ccc4sccc4c3)ncn2)ccc1CC(=O)O [Ex 189]
6.87	7.13	7.21	7.02		CCCc1cc(-c2cc(NCCc3ccc4ccccc4c3C)ncn2)ccc1C(=O)O [Ex 28, 4-{6-[2-(1-Methyl-naphthalen-2-yl)-ethylamino]-pyrimidin-4-yl}-2-propyl-benzoic acid]
6.36	6.94	6.08	5.72		COc1cc2c(cc1CCNc1cc(-c3ccc4c(C(=O)O)c[nH]c4c3)ncn1)OCCO2 [Ex 323]
6.96	6.99	7.85	8.40		CCOc1cc(-c2cc(NCCc3cc4cccnc4cc3F)ncn2)sc1-c1nnn[nH]1 [Example 349, {6-[4-Ethoxy-5-(1H-tetrazol-5-yl)-thiophen-2-yl]-pyrimidin-4-yl}-[2-(7-fluoro-quinolin-6-yl)-ethyl]-amine]
7.14	7.28	7.82	7.74		CCOc1cc(-c2cc(NCCc3ccc4cc[nH]c4c3)ncn2)sc1C(=O)O [Ex 24, 3-Ethoxy-5-{6-[2-(1H-indol-6-yl)-ethylamino]-pyrimidin-4-yl}-thiophene-2-carboxylic acid]
7.92	7.89	7.15	7.04		CCOc1cc(-c2cc(NCCc3cc4c(cc3F)OCCN4C)ncn2)sc1C(=O)O [Ex 104, 3-Ethoxy-5-{6-[2-(7-fluoro-4-methyl-3,4-dihydro-2H-benzo[1,4]oxazin-6-yl)-ethylamino]-pyrimidin-4-yl}-thiophene-2-carboxylic acid]
7.80	6.96		7.51	7.24	CCOc1cc(-c2cc(NCCc3c(OCC)cc4ccccc4c3F)ncn2)ccc1C(=O)O [Example 436, 2-Ethoxy-4-{6-[2-(3-ethoxy-1-fluoro-naphthalen-2-yl)-ethylamino]-pyrimidin-4-yl}-benzoic acid]
6.64	6.68	7.60	7.66		CCOc1cc(-c2cc(NCCc3cc(Cl)c4c(c3)OCCO4)ncn2)sc1C(=O)O [Ex 51, 5-{6-[2-(8-Chloro-2,3-dihydro-benzo[1,4]dioxin-6-yl)-ethylamino]-pyrimidin-4-yl}-3-ethoxy-thiophene-2-carboxylic acid]
6.88	7.30	6.44	6.57		CSc1cc(-c2cc(NCCc3ccc4occc4c3)ncn2)ccc1C(=O)O [Ex 248, 4-[6-(2-Benzofuran-5-yl-ethylamino)-pyrimidin-4-yl]-2-methylsulfanyl-benzoic acid]
7.52	6.74	6.87	7.15		CCCc1cc(-c2cc(NCCc3cc4ccsc4cc3OC)ncn2)ccc1CC(=O)O [Example 385, (4-{6-[2-(6-Methoxy-benzo[b]thiophen-5-yl)-ethylamino]-pyrimidin-4-yl}-2-propyl-phenyl)-acetic acid]
6.18	5.88	5.84	5.88		C=C(C(=O)O)c1ccc(-c2cc(NCCc3cc4c(cc3OC)OCCO4)ncn2)cc1 [Ex 337]
5.80	6.19	6.59	6.42		CCOc1cc(-c2cc(NCCc3c(F)c(F)c4cc(C)oc4c3OC)ncn2)ccc1C(=O)O [Ex 215]
6.91	6.96	7.44	7.40		CCOc1cc(-c2cc(NCCc3ccc4c(c3)OCC4)ncn2)sc1C(=O)O [Ex 67, 5-{6-[2-(2,3-Dihydro-benzofuran-6-yl)-ethylamino]-pyrimidin-4-yl}-3-ethoxy-thiophene-2-carboxylic acid]
6.99	6.43		7.68	7.74	CCOc1cc(-c2cc(NCCc3cc(F)c4sccc4c3)ncn2)ccc1-c1nnn[nH]1 [Example 452, {6-[3-Ethoxy-4-(1H-tetrazol-5-yl)-phenyl]-pyrimidin-4-yl}-[2-(7-fluoro-benzo[b]thiophen-5-yl)-ethyl]-amine]
7.12	7.16	6.68	6.82		CCOc1cc2c(cc1CCNc1cc(-c3ccc(CC(=O)O)c(OCC)c3)ncn1)OCCO2 [Ex 192, (2-Ethoxy-4-{6-[2-(7-ethoxy-2,3-dihydro-benzo[1,4]dioxin-6-yl)-ethylamino]-pyrimidin-4-yl}-phenyl)-acetic acid]
8.40	8.70	7.72	7.85		CCOc1cc2c(cc1CCNc1cc(-c3cc(OCC)c(C(=O)O)s3)ncn1)OCCO2 [Ex 39, 3-Ethoxy-5-{6-[2-(7-ethoxy-2,3-dihydro-benzo[1,4]dioxin-6-yl)-ethylamino]-pyrimidin-4-yl}-thiophene-2-carboxylic acid]
6.79	6.71	6.28	6.36		CCOc1cc(-c2cc(NCCc3cc4ccsc4cc3C)ncn2)ccc1CC(=O)O [Ex 290]
8.05	8.22	7.15	6.85		CCOc1cc(-c2cc(NCCc3c(OC)cc4occc4c3C)ncn2)ccc1OCC(=O)O [Ex 102, (2-Ethoxy-4-{6-[2-(6-methoxy-4-methyl-benzofuran-5-yl)-ethylamino]-pyrimidin-4-yl}-phenoxy)-acetic acid]
6.95	7.11	6.54	6.22		CSc1cc(-c2cc(NCCc3ccc4ccoc4c3)ncn2)ccc1C(=O)O [Ex 250, 4-[6-(2-Benzofuran-6-yl-ethylamino)-pyrimidin-4-yl]-2-methylsulfanyl-benzoic acid]
7.08	7.29	8.00	7.68		CCOc1nc(-c2cc(NCCc3ccc4ccccc4c3C)ncn2)sc1C(=O)O [Example 350, 4-Ethoxy-2-{6-[2-(1-methyl-naphthalen-2-yl)-ethylamino]-pyrimidin-4-yl}-thiazole-5-carboxylic acid]
7.68	7.92	8.30	7.85		CCOc1cc(-c2cc(NCCc3ccc4ccccc4c3C)ncn2)sc1C(=O)O [Example 7, 3-Ethoxy-5-{6-[2-(1-methyl-naphthalen-2-yl)-ethylamino]-pyrimidin-4-yl}-thiophene-2-carboxylic acid]
7.40	7.21	8.70	8.05		CCOc1cc(-c2cc(NCCc3cc(Cl)c4sccc4c3)ncn2)sc1C(=O)O [Example 359, 5-{6-[2-(7-Chloro-benzo[b]thiophen-5-yl)-ethylamino]-pyrimidin-4-yl}-3-ethoxy-thiophene-2-carboxylic acid]

SMILES	pIC50 (PTGER2 (EP2))	pIC50 (EP2)	pIC50 (EP4)	pIC50 (PTGER4 (EP4))	pIC50 (EP4; BT549 cells)
CC(C)COc1cc(-c2cc(NCCc3cc(F)c4sccc4c3)ncn2)ccc1C(=O)O [Example 453, 4-{6-[2-(7-Fluoro-benzo[b]thiophen-5-yl)-ethylamino]-pyrimidin-4-yl}-2-isobutoxy-benzoic acid]	6.99	6.55		7.15	6.93
O=C(O)c1ccc(-c2cc(NCCc3ccc4sccc4c3)ncn2)cc1OC1CCC1 [Ex 125, 4-[6-(2-Benzo[b]thiophen-5-yl-ethylamino)-pyrimidin-4-yl]-2-cyclobutoxy-benzoic acid]	6.94	6.89	7.00	6.65	
